Earlier results as cited in publication PMC12525602, “Identification of Selective α-Glucosidase Inhibitors via Virtual Screening with Machine Learning” (Molecules, 2025).

Test system: α-glucosidase
Conditions: activity label in the 300-compound modeling dataset (Table S5); 1 = active, 0 = inactive; cited from earlier work

activity, 1:
C[C@@H]1O[C@@H](O[C@H]2C(=O)c3c(O)cc(O)cc3O[C@@H]2c2ccc(O)c(O)c2)[C@H](O)[C@H](O)[C@H]1O [compound 229]
O=[N+]([O-])c1ccc(-c2nnc(/N=C(/CSc3nnc4c(n3)[nH]c3ccccc34)c3ccc(-c4ccccc4)cc3)s2)cc1 [compound 230]
O=c1c(O)c(-c2ccc(O)c(O)c2)oc2cc(O)ccc12 [compound 231]

Same assay, conditions: activity label of the 300-compound modeling dataset, Table S5; cited from earlier work

activity, 1:
Oc1cc(O)cc(-c2cc3cccc(Br)c3o2)c1 [compound 232]
O=C1CC(/C=N/Nc2cccc(Br)c2)Oc2ccccc21 (stereo not drawn) [compound 233]
CC(C)(C)c1ccc(N/N=C/C2CC(=O)c3ccccc3O2)cc1 (stereo not drawn) [compound 234]
O=C1CC(/C=N/Nc2ccc(F)cc2)Oc2ccccc21 (stereo not drawn) [compound 235]
Clc1ncccc1CNc1cccc(-c2nc3ccccc3[nH]2)c1 [compound 237]
Cc1ccc(C(=O)COc2c(I)cc(Cl)c3cccnc23)cc1 [compound 238]
Cc1ccc(/C(CSc2nnc3c(n2)[nH]c2ccccc23)=N\c2nnc(-c3ccc([N+](=O)[O-])cc3)s2)cc1 [compound 239]
O=C(COc1c(I)cc(Cl)c2cccnc12)c1ccc(Cl)cc1 [compound 241]
O=C(COc1c(I)cc(Cl)c2cccnc12)c1ccc(-c2ccccc2)cc1 [compound 242]
COc1ccccc1/C(CSc1nnc2c(n1)[nH]c1ccccc12)=N\c1nnc(-c2ccc(Cl)c(Cl)c2)s1 [compound 243]
O=c1c(O)c(-c2ccc(O)cc2)oc2cc(O)cc(O)c12 [compound 244]
O=C(/C=C/c1cc(F)c(O)c(F)c1)c1cccc2[nH]c(=O)oc12 [compound 245]
O=C(/C=C/c1ccc(O)c(F)c1)c1cccc2[nH]c(=O)oc12 [compound 246]
O=C(/C=C/c1ccc(O)cc1)c1cccc2[nH]c(=O)oc12 [compound 247]
O=C(COc1c(I)cc(Cl)c2cccnc12)c1ccc([N+](=O)[O-])cc1 [compound 248]
COc1ccc(/C(CSc2nnc3c(n2)[nH]c2ccccc23)=N\c2nnc(-c3ccc(Cl)c(Cl)c3)s2)cc1 [compound 249]
O=C(N/N=C/C1CC(=O)c2ccccc2O1)c1ccc(O)cc1 (stereo not drawn) [compound 250]
N#Cc1cccc(N/N=C/C2CC(=O)c3ccccc3O2)c1 (stereo not drawn) [compound 251]
O=c1c(O)c(-c2ccc(O)cc2)oc2cc(O)ccc12 [compound 252]
COc1cc(/C=N/N=C2\C(=O)Nc3ccccc32)ccc1OCc1cn(Cc2ccc(C)cc2)nn1 [compound 253]
Brc1ccc(CNc2cccc(-c3nc4ccccc4[nH]3)c2)cn1 [compound 254]
O=C1C(=NNc2nncs2)c2ccccc2N1Cc1ccc(Cl)cc1 [compound 255]
O=C(COc1c(I)cc(Cl)c2cccnc12)c1ccc(Br)cc1 [compound 256]
Cc1ccc(-c2cnc3ccccc3n2)cc1 [compound 257]
CN(C)c1ccc(/C=N/CCc2ccc(O)cc2)cc1 [compound 258]
O=C1Nc2ccccc2/C1=N/N=C/c1ccc(OCc2cn(Cc3ccccc3)nn2)cc1 [compound 259]
Fc1cccc(CNc2cccc(-c3nc4ccccc4[nH]3)c2)c1 [compound 260]
COc1cc(-c2nc3ccccc3[nH]2)ccc1OCC(=O)Nc1ccc(F)cc1 [compound 261]
O=C1C(=NN=Cc2ccc(OCc3cn(Cc4ccc(F)cc4)nn3)cc2)c2ccccc2N1c1ccc(Br)cc1 [compound 262]
Cc1ccccc1Cn1cc(COc2ccc(/C=N/N=C3\C(=O)Nc4ccccc43)cc2)nn1 [compound 263]
